Reference: patent US11291719B2, “Methods and compositions for modulating Akt3” (Augusta University Research Institute, Inc., priority 2016, dated 2022)

Legend:
IL-10 = IL-10 production by nTregs; type: cell-based; settings: percent IL-10+ FoxP3+ cells
Description: FIG. 17 is a bar graph representing the percent of IL-10^+ FoxP3^+ cells in nTregs treated with various concentrations of mJJ64A.

[1] = tested on: Tregs, CD8+ and FoxP3NEG CD4 T cells; experiment: T cell populations in tumors and spleens of TC-1 mice; type: in vivo, mouse
Description: FIG. 19A is a bar graph representing the number of CD8^+ cells per 10^6 live cells in tumors from untreated and mJJ64A treated mice. FIG. 19B is a bar graph representing the number of CD4^+ cells per 10^6 live cells in tumors from untreated and mJJ64A treated mice. FIG. 19C is a bar graph representing the number of FoxP3^+ cells per 10^6 CD4^+ cells in tumors from untreated and mJJ64A treated mice. FIG. 19D is a bar graph representing the number of CD8^+, FoxP3^NEG CD4^+, and Treg cells per 10^6 live cells in the spleen of untreated or mJJ64A treated tumor-bearing mice. FIG. 19E is a bar graph representing the number of CD8^+, FoxP3^NEG CD4^+, and Treg cells per 10^6 live cells in the spleen of untreated or mJJ64A treated tumor-free mice.

human iTregs = experiment: Induction and viability of human iTregs; type: cell-based
Description: FIG. 11A is a bar graph showing the percent of live human iTregs in cells treated with various concentrations of mJJ64A. The X-axis represents treatment group and the Y-axis represents percent of live cells. FIG. 11B is a bar graph showing the percent of FoxP3^+CD4^+ cells in human iTregs treated with various concentrations of mJJ64A. The X-axis represents treatment group and the Y-axis represents percent of FoxP3^+CD4^+ cells. FIG. 11C is a bar graph showing the percent of TGFβ^+ expressing cells in human iTregs treated with various concentrations of mJJ64A. The X-axis represents treatment group and the Y-axis represents percent of TGFβ^+ expressing cells.

mouse nTregs cells = experiment: Suppressive function of mouse nTregs in vitro; type: cell-based; settings: nTreg to Tconv ratios 0:1 to 3:1
Description: FIGS. 16A-16L is a set of histograms showing the suppressive function of untreated and mJJ64A treated nTregs. The ratio of nTreg to Tconv cells is 0:1, 0.5:1, 1:1, 2:1, and 3:1.

Tregs = experiment: Percent of Tregs in EAE mice; type: in vivo, mouse; settings: compared to untreated
Description: FIGS. 25A-251 are bar graphs showing the percent of FoxP3^+ cells per CD4^+ T cells, FoxP3^− cells per CD4^+ T cells, and ROR^+ cells per CD4^+ T cells in the spleen (FIG. 25A-25C), blood (FIG. 25D-25F), and brain (FIG. 25G-251) of UT, iTreg, mJJ64A-3, mJJ64A-6 and mJJ64A-10 treated EAE mice. The X-axis represents treatment group and the Y-axis represents number of FoxP3^+ cells, FoxP3^−, or ROR^+ cells per CD4^+ cells.

experimental colitis = experiment: Experimental colitis model; type: in vivo, mouse; settings: Rag-/- colitis mice
Description: FIG. 20A is a schematic illustration of the experimental design of a colitis model. FIG. 20B is a line graph representing weight (g) over time (days post-injection) for control (●), iTreg (▪), mJJ64A+iTreg (▴), and mJJ64A (∘) treated colitis mice. FIG. 20C is a line graph representing normalized weight over time (days post-injection) for control (●), iTreg (▪), mJJ64A+iTreg (▴), and mJJ64A (∘) treated colitis mice. FIG. 20D is a line graph showing percent survival of untreated (●), iTreg (blue circle), mJJ64A+iTreg (▾), and mJJ64A (red circle) treated colitis mice. The X-axis represents time (days) and the Y-axis represents percent survival. FIG. 20E-20I are representative photos of untreated (FIG. 20E), iTreg treated (FIG. 20F), JJa treated iTreg (FIG. 20G), untreated (FIG. 20H), and mJJ64A treated (FIG. 20I) colitis mice. […] FIG. 21A is a photo showing representative colons from untreated (UT), iTreg, mJJ64A treated iTreg, mJJ64A, and wild-type (WT) mice. FIG. 21B is a bar graph representing length and weight of colons from normal, untreated (UT), iTreg, mJJ64A, and mJJ64A+iTreg mice. The X-axis represents the treatment group and the Y-axis represents colon weight/length (mg/mm). […]

iTregs = experiment: Proliferation of activated iTregs; type: cell-based; settings: TGF-β induced
Description: FIGS. 13A-13H show histograms representing proliferation of activated iTregs induced with TGF-β and treated with various concentrations of mJJ64A. FIG. 13I is a bar graph showing percent proliferation of iTregs treated with various concentrations of mJJ64A. The X-axis represents concentration of mJJ64A. The Y-axis represents percent proliferation. FIG. 13J is a bar graph showing the percent of live cells in iTregs treated with various concentrations of mJJ64A. The X axis represents treatment and the Y axis represents percentage of live cells.

For N#Cc1ccc2nccc(Nc3ccc(C(=O)Nc4ccc(Nc5ccncc5)cc4)cc3)c2c1 [Compound 2], the “IL-10 production by nTregs” value (IL-10) was “increased”, the “number of Tregs in the tumors and spleens” value ([1]; compared to untreated controls) was “increased” and the “tumor-infiltration of CD8+ and FoxP3NEG CD4 T cells” value ([1]; mouse, in vivo) was “not affected”. For the same compound, the “induction of human iTregs” value (human iTregs; percent FoxP3+CD4+ and TGFβ+ cells) was “induced”, the “cell viability of human iTregs” value (human iTregs; percent of live cells) was “did not affect” and the “suppressive function of mouse nTregs cells in vitro” value (mouse nTregs cells) was “increased”. For the same compound, the “percent of Tregs in the spleen, blood, and brain” value (Tregs) was “increased”, the “protection against experimental colitis” value (experimental colitis) was “protected” and the “proliferation of iTregs” value (iTregs) was “increased”.
